Data taken from patent US20150105252A1, “SUBSTITUTED PYRAZOLES AS HERBICIDES” (E I DU PONT DE NEMOURS AND COMPANY, priority 2013, published 2015).

What was measured:
arrowleaf sida = assay: Test F postemergence; assay type: in vivo, Sida rhombifolia; conditions: scale 0 to 100
Excerpt: Seeds of plant species selected from corn (Zea mays), soybean (Glycine max), velvetleaf (Abutilon theophrasti), lambsquarters (Chenopodium album), wild poinsettia (Euphorbia heterophylla), pigweed, palmer (palmer pigweed, Amaranthus palmeri), common waterhemp (Amaranthus rudis), surinam grass (Brachiaria decumbens), large crabgrass (Digitaria sanguinalis), crabgrass, Brazil (Brazilian crabgrass, Digitaria horizontalis), fall panicum (Panicum dichotomiflorum), giant foxtail (Setaria faberii), green foxtail (Setaria viridis), goosegrass (Eleusine indica), johnsongrass (Sorghum halepense), common ragweed (Ambrosia elation), barnyardgrass (Echinochloa crus-galli), southern sandbur (Cenchrus echinatus), arrowleaf sida (Sida rhombifolia), Italian ryegrass (Lolium multiflorum), dayflower, VA (Virginia (VA) dayflower, Commelina virginica), field bindweed (Convolvulus arvensis), cocklebur (common cocklebur, Xanthium strumarium), morningglory (Ipomoea coccinea), nightshade (eastern black nightshade, Solanum ptycanthum), kochia (Kochia scoparia), yellow nutsedge (Cyperus esculentus), and hairy beggarticks (Bidens pilosa), were planted into a silt loam soil and treated preemergence with test chemicals formulated in a non-phytotoxic solvent mixture which included a surfactant.
At the same time, plants from these crop and weed species and also horseweed (Canada horseweed, Conyza canadensis), smartweed (ladysthumb smartweed, Polygonum persicaria), waterhemp_RES1, (ALS & Triazine resistant common waterhemp, Amaranthus rudis), and waterhemp_RES2, (ALS & HPPD resistant common waterhemp, Amaranthus rudis) were treated with postemergence applications of test chemicals formulated in the same manner. Plants ranged in height from 2 to 18 cm for postemergence treatments (1- to 4-leaf stage). Treated plants and controls were maintained in a greenhouse for 14 to 21 days, after which time all species were compared to controls and visually evaluated. Plant response ratings, summarized in Table F, are based on a scale of 0 to 100 where 0 is no effect and 100 is complete control. A dash (-) response means no test result.

common ragweed [1] = assay: Test A preemergence; assay type: in vivo, Ambrosia elation
In short: (§1)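 Growth medium: loam soil blended with sand. Preemergence treatment used a directed soil spray right after planting; postemergence treatment targeted seedlings at one to two leaves (2–10 cm height). Response was judged by eye relative to untreated plants about 10 days later on a 0–100 control scale.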

common ragweed [2] = assay: Test A postemergence; assay type: in vivo, Ambrosia elation
In short: as §1

ryegrass, Italian = assay: Test D preemergence; assay type: in vivo, Lolium multiflorum; conditions: scale 0 to 100
Excerpt: Seeds of plant species selected from bluegrass (annual bluegrass, Poa annua), blackgrass (Alopecurus myosuroides), canarygrass (littleseed canarygrass, Phalaris minor), chickweed (common chickweed, Stellaria media), galium (catchweed bedstraw, Galium aparine), bromegrass, downy (downy bromegrass, Bromus tectorum), field poppy (Papaver rhoeas), field violet (Viola arvensis), foxtail, green (green foxtail, Setaria viridis), deadnettle (henbit deadnettle, Lamium amplexicaule), ryegrass, Italian (Italian ryegrass, Lolium multiflorum), kochia (Kochia scoparia), lambsquarters (Chenopodium album), oilseed rape (Brassica napus), pigweed (redroot pigweed, Amaranthus retroflexus), chamomile (scentless chamomile, Matricaria inodora), speedwell (bird's-eye speedwell, Veronica persica), barley, spring (spring barley, Hordeum vulgare), wheat, spring (spring wheat, Triticum aestivum), buckwheat, wild (wild buckwheat, Polygonum convolvulus), mustard, wild (wild mustard, Sinapis arvensis), oat, wild (wild oat, Avena fatua), radish, wild (wild radish, Raphanus raphanistrum), windgrass (Apera spica-venti), Russian thistle (Salsola kali), barley, winter (winter barley, Hordeum vulgare), and wheat, winter (winter wheat, Triticum aestivum) were planted into a silt loam soil and treated preemergence with test chemicals formulated in a non-phytotoxic solvent mixture which included a surfactant.
At the same time, these species were planted in pots containing Redi-Earth® planting medium (Scotts Company, 14111 Scottslawn Road, Marysville, Ohio 43041) comprising spaghnum peat moss, vermiculite, wetting agent and starter nutrients and treated with postemergence applications of the test chemicals formulated in the same manner. Plants ranged in height from 2 to 18 cm (1- to 4-leaf stage). Treated plants and controls were maintained in a controlled growth environment for 14 to 21 days after which time all species were compared to controls and visually evaluated. Plant response ratings, summarized in Table D, are based on a scale of 0 to 100 where 0 is no effect and 100 is complete control. A dash (-) response means no test result.

[3] = 125 g ai/ha, visual injury, 0 to 100 scale, approx. 10 days
[4] = 500 g ai/ha, visual injury after approx. 10 days, 0 to 100 scale (0 no effect, 100 complete control)
[5] = Postemergence, 500 g ai/ha, 0 to 100 scale (0 no effect, 100 complete control)
[6] = postemergence, 125 g ai/ha, about 10 days, visual rating on 0 to 100 scale (0 no effect, 100 complete control)

Row | Structure (SMILES) | Plant response rating, Arrowleaf Sida (arrowleaf sida; Postemergence, 31 g ai/ha) | Plant response rating, Arrowleaf Sida (arrowleaf sida; Postemergence, 125 g ai/ha) | Plant response rating, Arrowleaf Sida (arrowleaf sida; Postemergence, 250 g ai/ha) | Plant response rating, Arrowleaf Sida (arrowleaf sida; postemergence, 62 g ai/ha) | Plant response rating, Arrowleaf Sida (arrowleaf sida; postemergence, 500 g ai/ha) | Common Ragweed plant response rating (common ragweed [1]; [3]) | Common Ragweed plant response rating (common ragweed [1]; [4]) | Common Ragweed plant response rating (common ragweed [2]; [5]) | Common Ragweed plant response rating (common ragweed [2]; [6]) | Plant response rating, Ryegrass, Italian (ryegrass, Italian; 62 g ai/ha) | Plant response rating, Ryegrass, Italian (ryegrass, Italian; 125 g ai/ha) | Plant response rating, Ryegrass, Italian (ryegrass, Italian; 250 g ai/ha) | Common Ragweed plant response rating (0 to 100 scale) (common ragweed [1]; 125 g ai/ha, visual injury approx. 10 days after treatment)
1 | CCc1cc(C(=O)NCC(F)(F)F)nn1Cc1ccnc(C(F)(F)F)c1 [Compound 78, 5-ethyl-N-(2,2,2-trifluoroethyl)-1-[[(2-trifluoromethyl)-4-pyridinyl]methyl]-1H-pyrazole-3-carboxamide] | 50 | 75 | 80 | 60 | 95 | – | – | – | – | – | – | – | –
2 | CCOc1cc(C(=O)NCC(F)(F)F)nn1Cc1ccnc(C(F)(F)F)c1 [Compound 104] | 55 | 70 | 80 | 60 | 95 | – | – | – | – | – | – | – | –
3 | CCCc1cc(C(=O)NCC(F)(F)F)nn1Cc1ccnc(C(F)(F)F)c1 [Compound 105] | 40 | 60 | 80 | 50 | 90 | – | – | – | – | – | – | – | –
4 | CCONC(=O)c1cc(CC)n(Cc2cc(C(F)(F)F)no2)n1 [Compound 125] | – | – | – | – | – | 50 | 90 | 60 | 20 | – | – | – | –
5 | CCOc1cc(C(=O)NC2CC2)nn1Cc1ccnc(OC(F)F)c1 [Compound 133] | – | – | – | – | – | 80 | 90 | 100 | 60 | – | – | – | –
6 | CCCc1cc(C(=O)NCC(F)(F)F)nn1Cc1cc(C(F)(F)F)nn1C [Compound 138] | – | – | – | – | – | – | – | – | – | 35 | 70 | 90 | –
7 | CCOc1cc(C(=O)NC(C)C)nn1Cc1ccnc(C(F)(F)F)c1 [Compound 188] | 50 | 60 | 70 | 50 | 80 | – | – | – | – | 75 | 85 | 95 | –
8 | CCOc1cc(C(=O)NC2CC2)nn1Cc1ccnc(C(F)(F)F)c1 [Compound 189] | – | – | – | – | – | – | – | – | – | 40 | 60 | 95 | –
9 | CCc1cc(C(=O)NCC(F)(F)F)nn1Cc1cc(OC(F)F)nn1C [Compound 206] | – | – | – | – | – | – | 40 | 30 | 0 | – | – | – | 0
